Read-outs that look alike come from different tables or passages of the source.
Tests used:
pTau = pTau assay (no method described); type: cell-based
GSK3β = GSK3β (Homo sapiens, UniProt P49841); assay: GSK3β kinase assay (Caliper LabChip, fluoresceinated peptide substrate); type: biochemical
Method in brief: (§1)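 Reaction: 20 h, room temperature. Quench: 35 mM EDTA. Detection: substrate/product separation by chip electrophoresis. Analysis: eleven concentrations, non-linear regression to IC50.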

GSK3α = GSK3α (Homo sapiens, UniProt P49840); assay: GSK3α kinase assay (Caliper LabChip, fluoresceinated peptide substrate); type: biochemical
GSK3α, sequence (P49840 whole entry, species assumed): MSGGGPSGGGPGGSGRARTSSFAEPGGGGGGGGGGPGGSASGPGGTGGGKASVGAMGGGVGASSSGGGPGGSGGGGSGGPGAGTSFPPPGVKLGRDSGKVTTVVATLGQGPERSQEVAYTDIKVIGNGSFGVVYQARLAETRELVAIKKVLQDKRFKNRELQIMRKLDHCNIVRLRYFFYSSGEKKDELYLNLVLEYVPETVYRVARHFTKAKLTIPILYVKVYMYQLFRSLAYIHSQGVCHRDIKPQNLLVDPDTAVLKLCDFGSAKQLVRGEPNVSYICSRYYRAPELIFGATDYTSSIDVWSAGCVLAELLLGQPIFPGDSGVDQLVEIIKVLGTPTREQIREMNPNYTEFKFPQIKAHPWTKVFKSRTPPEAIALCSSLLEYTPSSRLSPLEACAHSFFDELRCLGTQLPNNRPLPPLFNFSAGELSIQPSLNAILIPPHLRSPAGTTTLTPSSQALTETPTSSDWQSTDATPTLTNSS
Method in brief: as §1

[1] = first value of the cell, 250 pM enzyme, 20 uM ATP, 20 hours at room temperature, read-out: GSK3β/α (nM): GSK3β IC50
[2] = second value of the cell, 250 pM enzyme, 20 uM ATP, 20 hours at room temperature, read-out: GSK3β/α (nM): GSK3α IC50

GSK3β, sequence (P49841 whole entry, species assumed): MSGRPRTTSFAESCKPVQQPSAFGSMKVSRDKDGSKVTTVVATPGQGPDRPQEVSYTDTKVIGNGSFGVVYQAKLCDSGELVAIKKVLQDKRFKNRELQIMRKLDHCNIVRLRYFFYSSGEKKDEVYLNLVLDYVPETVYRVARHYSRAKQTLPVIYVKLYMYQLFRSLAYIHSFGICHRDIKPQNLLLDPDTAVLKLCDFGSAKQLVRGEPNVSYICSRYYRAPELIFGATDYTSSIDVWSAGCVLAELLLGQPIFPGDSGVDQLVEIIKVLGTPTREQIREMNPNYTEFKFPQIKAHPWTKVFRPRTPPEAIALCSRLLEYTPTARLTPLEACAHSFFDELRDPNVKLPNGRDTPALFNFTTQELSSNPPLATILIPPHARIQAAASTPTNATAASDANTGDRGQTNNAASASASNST

Compound `N#Cc1cccc(Nc2cc(C(=O)Nc3cncc(-c4cccc(F)c4C#N)c3)ccn2)n1` [Example 166, N-(5-(2-Cyano-3-fluorophenyl)pyridin-3-yl)-2-((6-cyanopyridin-2-yl)amino)isonicotinamide] has an IC50 (pTau) of 390 nM, an IC50 (GSK3β; [1]) of 0.91 nM and an IC50 (GSK3α) of 0.28 nM.

In the case of `O=C(Nc1cnccc1-c1ccccc1)c1cc(Nc2ccc(C(F)(F)F)cn2)ncc1F` [Example 167, 5-Fluoro-N-(4-phenylpyridin-3-yl)-2-((5-(trifluoromethyl)pyridin-2-yl)amino)isonicotinamide], the IC50 (pTau) is reported as 230 nM, the IC50 (GSK3β; [1]) is reported as 1.8 nM and the IC50 (GSK3α) is reported as 0.55 nM.

`O=C(Nc1cnccc1OCC(F)(F)F)c1ccnc(Nc2ccc(C(F)(F)F)cn2)c1F` [Example 169, 3-Fluoro-N-(4-(2,2,2-trifluoroethoxy)pyridin-3-yl)-2-((5-(trifluoromethyl)pyridin-2-yl)amino)isonicotinamide] was tested, and the IC50 (pTau) was 3900 nM, the IC50 (GSK3β; [1]) was 28 nM and the IC50 (GSK3α) was 10 nM.

`CCCSc1ccncc1NC(=O)c1ccnc(Nc2ccc(C(F)(F)F)cn2)c1` [Example 170, N-(4-(Propylthio)pyridin-3-yl)-2-((5-(trifluoromethyl)pyridin-2-yl)amino)isonicotinamide] was tested, and the IC50 (pTau) was 49 nM, the IC50 (GSK3β; [1]) was 0.75 nM and the IC50 (GSK3α) was 0.21 nM.

In the case of `O=C(Nc1cnccc1SCC(F)(F)F)c1ccnc(Nc2ccc(C(F)(F)F)cn2)c1` [Example 171, N-(4-((2,2,2-Trifluoroethyl)thio)pyridin-3-yl)-2-((5-(trifluoromethyl)pyridin-2-yl)amino)isonicotinamide], the IC50 (pTau) is reported as 47 nM, the IC50 (GSK3β; [1]) is reported as 1.2 nM and the IC50 (GSK3α) is reported as 0.61 nM.

`O=C(Nc1cnccc1Sc1ccccc1)c1ccnc(Nc2ccc(C(F)(F)F)cn2)c1` [Example 172, N-(4-(Phenylthio)pyridin-3-yl)-2-((5-(trifluoromethyl)pyridin-2-yl)amino)isonicotinamide] gave an IC50 (pTau) of 240 nM, an IC50 (GSK3β; [1]) of 5.6 nM and an IC50 (GSK3α) of 1.1 nM.

Compound `CC(C)Sc1ccncc1NC(=O)c1ccnc(Nc2ccc(C(F)(F)F)cn2)c1` [Example 173, N-(4-(Isopropylthio)pyridin-3-yl)-2-((5-(trifluoromethyl)pyridin-2-yl)amino)isonicotinamide] has an IC50 (pTau) of 48 nM, an IC50 (GSK3β; [1]) of 0.52 nM and an IC50 (GSK3α) of 0.19 nM.

`CC(C)(C)Sc1ccncc1NC(=O)c1ccnc(Nc2ccc(C(F)(F)F)cn2)c1` [Example 174, N-(4-(tert-Butylthio)pyridin-3-yl)-2-((5-(trifluoromethyl)pyridin-2-yl)amino)isonicotinamide] gave an IC50 (pTau) of 27 nM, an IC50 (GSK3β; [1]) of 0.14 nM and an IC50 (GSK3α) of 0.08 nM.

Work on `CC(C)CSc1ccncc1NC(=O)c1ccnc(Nc2ccc(C(F)(F)F)cn2)c1` [Example 175, N-(4-(Isobutylthio)pyridin-3-yl)-2-((5-(trifluoromethyl)pyridin-2-yl)amino)isonicotinamide] yielded an IC50 (pTau) of 78 nM, an IC50 (GSK3β; [1]) of 1.1 nM and an IC50 (GSK3α) of 0.4 nM.

With `O=C(Nc1cnc(Cl)cc1SC1CC1)c1ccnc(Nc2ccc(C(F)(F)F)cn2)c1` [Example 176, N-(6-Chloro-4-(cyclopropylthio)pyridin-3-yl)-2-((5-(trifluoromethyl)pyridin-2-yl)amino)isonicotinamide] the IC50 (pTau) was 1100 nM, the IC50 (GSK3β; [1]) was 11 nM and the IC50 (GSK3α) was 7 nM.

Work on `O=C(Nc1cnccc1[S+]([O-])c1ccccc1)c1ccnc(Nc2ccc(C(F)(F)F)cn2)c1` (stereo not drawn) [Example 177, N-(4-(Phenylsulfinyl)pyridin-3-yl)-2-((5-(trifluoromethyl)pyridin-2-yl)amino)isonicotinamide] yielded an IC50 (pTau) of 760 nM, an IC50 (GSK3β; [1]) of 3.9 nM and an IC50 (GSK3α) of 1.1 nM.

`CC(C)(C)[S+]([O-])c1ccncc1NC(=O)c1ccnc(Nc2ccc(C(F)(F)F)cn2)c1` (stereo not drawn) [Example 178, N-(4-(tert-Butylsulfinyl)pyridin-3-yl)-2-((5-(trifluoromethyl)pyridin-2-yl)amino)isonicotinamide] showed an IC50 (pTau) of 13 nM, an IC50 (GSK3β; [1]) of 0.12 nM and an IC50 (GSK3α) of 1.2 nM.

Work on `O=C(Nc1cnc(Cl)cc1[S+]([O-])C1CC1)c1ccnc(Nc2ccc(C(F)(F)F)cn2)c1` (stereo not drawn) [Example 180, N-(6-Chloro-4-(cyclopropylsulfinyl)pyridin-3-yl)-2-((5-(trifluoromethyl)pyridin-2-yl)amino)isonicotinamide] yielded an IC50 (pTau) of 790 nM, an IC50 (GSK3β; [1]) of 15 nM and an IC50 (GSK3α) of 7.6 nM.

`CCCS(=O)(=O)c1ccncc1NC(=O)c1ccnc(Nc2ccc(C(F)(F)F)cn2)c1` [Example 182, N-(4-(Propylsulfonyl)pyridin-3-yl)-2-((5-(trifluoromethyl)pyridin-2-yl)amino)isonicotinamide] gave an IC50 (pTau) of 15 nM, an IC50 (GSK3β; [1]) of 5.2 nM and an IC50 (GSK3α) of 2.1 nM.

Work on `O=C(Nc1cnccc1S(=O)(=O)c1ccccc1)c1ccnc(Nc2ccc(C(F)(F)F)cn2)c1` [Example 183, N-(4-(Phenylsulfonyl)pyridin-3-yl)-2-((5-(trifluoromethyl)pyridin-2-yl)amino)isonicotinamide] yielded an IC50 (pTau) of 200 nM, an IC50 (GSK3β; [1]) of 2.2 nM and an IC50 (GSK3α) of 0.75 nM.

`O=C(Nc1cnccc1S(=O)(=O)CC(F)(F)F)c1ccnc(Nc2ccc(C(F)(F)F)cn2)c1` [Example 184, N-(4-((2,2,2-Trifluoroethyl)sulfonyl)pyridin-3-yl)-2-((5-(trifluoromethyl)pyridin-2-yl)amino)isonicotinamide] was tested, and the IC50 (pTau) was 130 nM, the IC50 (GSK3β; [1]) was 120 nM and the IC50 (GSK3α) was 4.8 nM.

With `CC(C)CS(=O)(=O)c1ccncc1NC(=O)c1ccnc(Nc2ccc(C(F)(F)F)cn2)c1` [Example 185, N-(4-(Isobutylsulfonyl)pyridin-3-yl)-2-((5-(trifluoromethyl)pyridin-2-yl)amino)isonicotinamide] the IC50 (pTau) was 49 nM, the IC50 (GSK3β) was 0.51 nM and the IC50 (GSK3α; [2]) was 4.8 nM.

`CC(C)S(=O)(=O)c1ccncc1NC(=O)c1ccnc(Nc2ccc(C(F)(F)F)cn2)c1` [Example 186, N-(4-(Isopropylsulfonyl)pyridin-3-yl)-2-((5-(trifluoromethyl)pyridin-2-yl)amino)isonicotinamide] showed an IC50 (pTau) of 2 nM, an IC50 (GSK3β) of 1.2 nM and an IC50 (GSK3α; [2]) of 0.04 nM.

In the case of `CC(C)(C)S(=O)(=O)c1ccncc1NC(=O)c1ccnc(Nc2ccc(C(F)(F)F)cn2)c1` [Example 187, N-(4-(tert-butylsulfonyl)pyridin-3-yl)-2-((5-(trifluoromethyl)pyridin-2-yl)amino)isonicotinamide], the IC50 (pTau) is reported as 1.1 nM, the IC50 (GSK3β; [1]) is reported as 0.4 nM and the IC50 (GSK3α) is reported as 0.07 nM.

With `O=C(Nc1cnc(Cl)cc1S(=O)(=O)C1CC1)c1ccnc(Nc2ccc(C(F)(F)F)cn2)c1` [Example 188, N-(6-Chloro-4-(cyclopropylsulfonyl)pyridin-3-yl)-2-((5-(trifluoromethyl)pyridin-2-yl)amino)isonicotinamide] the IC50 (pTau) was 150 nM, the IC50 (GSK3β; [1]) was 5 nM and the IC50 (GSK3α) was 3.3 nM.

For `O=C(Nc1cnccn1)c1ccnc(Nc2ccc(C(F)(F)F)cn2)c1` [Example 189, N-(Pyrazin-2-yl)-2-((5-(trifluoromethyl)pyridin-2-yl)amino)isonicotinamide], the IC50 (pTau) was 1030 nM, the IC50 (GSK3β; [1]) was 11 nM and the IC50 (GSK3α) was 4.3 nM.

For `O=C(Nc1cncc(-c2ccccc2F)n1)c1ccnc(Nc2ccc(C(F)(F)F)cn2)c1` [Example 190, N-(6-(2-Fluorophenyl)pyrazin-2-yl)-2-((5-(trifluoromethyl)pyridin-2-yl)amino)isonicotinamide], the IC50 (pTau) was 10000 nM, the IC50 (GSK3β; [1]) was 68 nM and the IC50 (GSK3α) was 29 nM.

Compound `O=C(Nc1cncnc1)c1ccnc(Nc2ccc(C(F)(F)F)cn2)c1` [Example 191, N-(Pyrimidin-5-yl)-2-((5-(trifluoromethyl)pyridin-2-yl)amino)isonicotinamide] has an IC50 (pTau) of 1600 nM, an IC50 (GSK3β; [1]) of 17 nM and an IC50 (GSK3α) of 9 nM.

From US9718804B2, “GSK-3 inhibitors” (BRISTOL-MYERS SQUIBB COMPANY, priority 2013, dated 2017)
